# Assay results as given in the C3SDB collision cross section collection.
# Tests used:
# [1] = instrument: DT, stepped-field
# [2] = [M+Na]+; instrument: DT; stepped-field
# [3] = [M+H]+; instrument: DT; single field, calibrated with Agilent tune mix (Agilent)
structure (smiles),measurement,setting,value
N[C@@H](Cc1ccc(O)cc1)C(=O)O [L-Tyrosine],collision cross section (N2),[1]; [M+H]+,146.45 Å²
same,collision cross section (N2),[1]; [M-H]-,145.59 Å²
same,collision cross section (N2),[2],143.97 Å²
same,collision cross section (N2),[3],145.7 Å²
